According to patent US20250099423A1, “PIPERAZINE-BASED AGONISTS OF LFA-1 AND VLA-4” (Texas Heart Institute, priority 2021, published 2025):

Experiments:
α4β1/VCAM-1 = target: T1, α4β1/VCAM-1 (Homo sapiens, UniProt P05556+P13612); test: Static cell adhesion assay, Jurkat cells on VCAM-1 (α4β1/VCAM-1); assay type: cell-based; conditions: ratio compound activity/control THI0019 (average 33 μM) run on the same plate
T1 construct: The Jurkat (VCAM-1 assays) and HSB (ICAM-1 assays) cell lines were obtained from American Type Culture Collection; endogenous in cells; host or cells: Jurkat cells (ATCC)
T1 sequence (P13612 34-1032): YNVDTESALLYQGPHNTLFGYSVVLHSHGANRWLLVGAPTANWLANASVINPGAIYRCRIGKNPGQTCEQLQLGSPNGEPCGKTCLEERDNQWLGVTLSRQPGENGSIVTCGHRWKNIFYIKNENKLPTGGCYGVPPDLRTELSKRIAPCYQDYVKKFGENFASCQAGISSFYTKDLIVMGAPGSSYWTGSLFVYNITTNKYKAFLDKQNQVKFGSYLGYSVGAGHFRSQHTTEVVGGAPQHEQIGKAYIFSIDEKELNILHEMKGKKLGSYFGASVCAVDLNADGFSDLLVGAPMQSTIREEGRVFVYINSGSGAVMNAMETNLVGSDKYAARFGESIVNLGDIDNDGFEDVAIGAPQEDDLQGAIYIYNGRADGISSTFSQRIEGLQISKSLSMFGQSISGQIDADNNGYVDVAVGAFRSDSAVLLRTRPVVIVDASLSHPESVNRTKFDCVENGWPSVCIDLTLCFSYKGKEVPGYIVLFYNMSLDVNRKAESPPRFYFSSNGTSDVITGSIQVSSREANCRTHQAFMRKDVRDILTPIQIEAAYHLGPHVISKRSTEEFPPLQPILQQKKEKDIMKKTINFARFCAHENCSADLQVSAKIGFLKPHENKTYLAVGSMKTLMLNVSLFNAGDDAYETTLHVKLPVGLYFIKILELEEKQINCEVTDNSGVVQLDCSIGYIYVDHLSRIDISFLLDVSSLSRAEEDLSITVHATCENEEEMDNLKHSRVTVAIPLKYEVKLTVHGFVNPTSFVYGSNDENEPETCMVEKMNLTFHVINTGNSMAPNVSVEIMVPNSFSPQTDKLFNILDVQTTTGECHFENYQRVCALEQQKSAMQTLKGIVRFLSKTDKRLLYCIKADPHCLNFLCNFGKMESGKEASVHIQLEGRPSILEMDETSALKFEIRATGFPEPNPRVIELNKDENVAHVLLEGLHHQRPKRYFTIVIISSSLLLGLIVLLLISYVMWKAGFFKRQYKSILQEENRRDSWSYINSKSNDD
T1 sequence (P05556 21-798): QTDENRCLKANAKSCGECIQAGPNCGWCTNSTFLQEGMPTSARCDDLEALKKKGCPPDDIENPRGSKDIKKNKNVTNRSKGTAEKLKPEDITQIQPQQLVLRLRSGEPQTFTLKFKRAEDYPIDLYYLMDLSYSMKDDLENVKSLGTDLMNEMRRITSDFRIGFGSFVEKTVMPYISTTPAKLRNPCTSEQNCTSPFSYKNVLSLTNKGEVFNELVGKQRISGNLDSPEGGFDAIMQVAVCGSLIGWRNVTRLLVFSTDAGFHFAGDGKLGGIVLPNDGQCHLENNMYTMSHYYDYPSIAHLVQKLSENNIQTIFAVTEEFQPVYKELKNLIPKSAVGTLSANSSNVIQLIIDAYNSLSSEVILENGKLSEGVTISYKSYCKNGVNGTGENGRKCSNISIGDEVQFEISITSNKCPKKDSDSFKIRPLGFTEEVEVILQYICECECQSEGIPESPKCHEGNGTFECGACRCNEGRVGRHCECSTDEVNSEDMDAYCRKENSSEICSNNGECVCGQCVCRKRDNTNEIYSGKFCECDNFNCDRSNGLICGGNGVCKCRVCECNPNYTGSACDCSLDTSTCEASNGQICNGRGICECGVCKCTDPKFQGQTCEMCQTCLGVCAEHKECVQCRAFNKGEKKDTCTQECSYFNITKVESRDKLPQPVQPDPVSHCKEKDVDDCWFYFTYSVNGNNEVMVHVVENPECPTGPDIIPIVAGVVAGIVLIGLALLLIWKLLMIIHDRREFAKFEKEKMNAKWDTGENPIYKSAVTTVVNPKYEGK
Experimental: (§1) For in vitro cell adhesion assays, compounds were dissolved in DMSO to make a series of stock solutions such that a 1:100 dilution in assay buffer would yield the desired final working concentrations in 1% DMSO (vehicle). Human VCAM-1 and ICAM-1 were purchased from R&D Systems (Minneapolis, MN). The Jurkat (VCAM-1 assays) and HSB (ICAM-1 assays) cell lines were obtained from American Type Culture Collection (Manassas, VA) and were maintained in recommended culture media.
(§2) Assays were performed as previously described in 1. Vanderslice, P., Woodside, D. G., Caivano, A. R., Decker, E. R., Munsch, C. L., Sherwood, S. J., Lejeune, W. S., Miyamoto, Y. J., McIntyre, B. W., Tilton, R. G., and Dixon, R. A. (2010) Potent in vivo suppression of inflammation by selectively targeting the high affinity conformation of integrin alpha4beta1. Biochem Biophys Res Commun 400, 619-624; and 2. Vanderslice, P., Biediger, R. J., Woodside, D. G., Brown, W. S., Khounlo, S., Warier, N. D., Gundlach, C. W. t., Caivano, A. R., Bornmann, W. G., Maxwell, D. S., McIntyre, B. W., Willerson, J. T., and Dixon, R. A. (2013) Small molecule agonist of very late antigen-4 (VLA-4) integrin induces progenitor cell adhesion. J Biol Chem 288, 19414-19428. VCAM-1 or ICAM-1 ligand in 50 μL of 50 mM Tris-HCl (pH 7.4), 150 mM NaCl, (TBS) was added to wells of a 96-well plate and allowed to coat overnight at 4° C. To maximize the window to evaluate agonist activity, a sub-optimal coating concentration of ligand was used, typically between 0.5 and 5 μg/mL in 50 μL TBS for VCAM-1 and ICAM-1 respectively. This ligand concentration corresponded approximately to that which would yield≤ 5% adhesion as determined by dose-response curves. Briefly, 2×10^6 cells were labeled for 30 minutes with calcein-AM (Molecular Probes), washed, resuspended in binding buffer, and added to triplicate wells of ligand-coated plates (2×10^5 cells/well) that had been blocked with 2% BSA. After a 30-minute incubation at 37° C., the plates were washed 3 times with binding buffer, the adherent cells were lysed, and fluorescence was measured on a Tecan Safire^2 plate reader. The binding buffer was PBS with 1 mM MgCl2, 50% FBS for α4β1/VCAM-1 assays and PBS with 2 mM MgCl2, 5 mM EGTA, 50% FBS for αLβ2/ICAM-1 assays. EC50 is defined as the concentration of compound required to achieve 50% of the maximal response.

LFA-1 = target: T2, LFA-1 (Homo sapiens, UniProt P05107+P20701); test: Static cell adhesion assay, HSB cells on ICAM-1 (αLβ2/ICAM-1; LFA-1); assay type: cell-based; conditions: Dose 3 μM, compound and THI0349 at the same concentration; ratio >1 = more potent agonist
T2 construct: The Jurkat (VCAM-1 assays) and HSB (ICAM-1 assays) cell lines were obtained from American Type Culture Collection; endogenous in cells; host or cells: HSB cells (ATCC)
T2 sequence (P20701 26-1170): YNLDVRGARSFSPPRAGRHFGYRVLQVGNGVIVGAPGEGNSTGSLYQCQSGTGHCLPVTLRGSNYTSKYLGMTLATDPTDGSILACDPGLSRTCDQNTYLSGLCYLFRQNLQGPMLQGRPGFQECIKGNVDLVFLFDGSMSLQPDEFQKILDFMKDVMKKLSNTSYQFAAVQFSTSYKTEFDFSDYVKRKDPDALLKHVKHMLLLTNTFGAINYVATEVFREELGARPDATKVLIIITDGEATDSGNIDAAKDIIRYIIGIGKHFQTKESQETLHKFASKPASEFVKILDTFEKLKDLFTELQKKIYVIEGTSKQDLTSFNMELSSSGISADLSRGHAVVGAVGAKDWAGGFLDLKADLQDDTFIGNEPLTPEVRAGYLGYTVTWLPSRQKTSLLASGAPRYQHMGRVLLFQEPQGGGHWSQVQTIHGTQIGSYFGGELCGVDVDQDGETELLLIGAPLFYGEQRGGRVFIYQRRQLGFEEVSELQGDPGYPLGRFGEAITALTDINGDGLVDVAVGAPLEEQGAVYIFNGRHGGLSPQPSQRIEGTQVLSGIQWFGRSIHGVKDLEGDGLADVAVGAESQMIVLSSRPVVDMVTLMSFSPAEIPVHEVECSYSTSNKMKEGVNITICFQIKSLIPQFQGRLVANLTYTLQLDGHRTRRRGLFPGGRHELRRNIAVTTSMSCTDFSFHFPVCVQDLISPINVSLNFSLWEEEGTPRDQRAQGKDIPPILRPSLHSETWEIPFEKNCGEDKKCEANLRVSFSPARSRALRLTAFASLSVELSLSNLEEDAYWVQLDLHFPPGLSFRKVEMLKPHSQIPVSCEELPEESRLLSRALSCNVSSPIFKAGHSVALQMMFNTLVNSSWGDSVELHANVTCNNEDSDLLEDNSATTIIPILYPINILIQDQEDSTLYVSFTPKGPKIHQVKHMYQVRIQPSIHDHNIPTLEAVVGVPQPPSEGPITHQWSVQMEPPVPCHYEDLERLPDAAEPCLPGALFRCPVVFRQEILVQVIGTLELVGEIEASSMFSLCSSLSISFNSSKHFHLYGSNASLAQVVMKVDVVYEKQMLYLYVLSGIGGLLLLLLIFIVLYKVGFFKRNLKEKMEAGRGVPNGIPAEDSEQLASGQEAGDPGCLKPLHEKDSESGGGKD
T2 sequence (P05107 23-769): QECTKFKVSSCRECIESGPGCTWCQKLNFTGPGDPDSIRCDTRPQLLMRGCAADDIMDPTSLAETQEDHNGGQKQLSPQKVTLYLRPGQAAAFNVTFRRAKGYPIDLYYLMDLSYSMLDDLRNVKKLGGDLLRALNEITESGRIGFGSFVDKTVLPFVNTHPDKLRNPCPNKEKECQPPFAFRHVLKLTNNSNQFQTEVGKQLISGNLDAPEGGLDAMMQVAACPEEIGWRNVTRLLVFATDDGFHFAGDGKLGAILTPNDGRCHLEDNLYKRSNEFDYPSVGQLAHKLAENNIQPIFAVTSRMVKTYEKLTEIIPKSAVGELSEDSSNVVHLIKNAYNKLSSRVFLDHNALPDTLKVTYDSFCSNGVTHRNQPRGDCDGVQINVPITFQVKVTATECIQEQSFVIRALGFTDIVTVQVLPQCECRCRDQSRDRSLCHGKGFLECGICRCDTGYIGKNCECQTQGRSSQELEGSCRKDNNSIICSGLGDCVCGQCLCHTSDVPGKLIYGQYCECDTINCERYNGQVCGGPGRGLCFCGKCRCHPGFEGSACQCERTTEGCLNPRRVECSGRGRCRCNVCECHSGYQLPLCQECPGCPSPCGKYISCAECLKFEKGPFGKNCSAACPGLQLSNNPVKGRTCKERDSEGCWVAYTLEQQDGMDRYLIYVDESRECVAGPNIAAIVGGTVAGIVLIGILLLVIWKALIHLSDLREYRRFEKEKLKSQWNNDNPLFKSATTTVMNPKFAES
Experimental: as §1, §2
THI0019 and THI0349 (average 11 μM) reported values here were obtained under the assay conditions reported herein and ran higher in the presence of serum than those values under different assay conditions. […] Relative to THI0019 (average 33 μM) as a control against CS1, the ratio of (compound activity/control) is as follows: Group I< or =1. Group II at least a ratio of >1 up to 2× that of THI0019 ran on the same plate; Group III is >2× of THI0019 but less than 5×; and Group IV>5× of THI0019 (with an upper limit of approximately 200 mM). In relation to LAD (Leukocyte Adhesion Deficiency), LFA-1 ratios are determined by dividing the relative fluorescence units (RFU) of each compound over that of the reference standard of THI0349, (RFU Compound/RFU of THI0349). Against LFA-1, the signal for THI0349 at 3 μM was compared to the claimed compounds at the same concentration.

COc1ccc(CN(Cc2cccc(N(C)C)c2)C(=O)CN2CC(=O)N(CC(=O)N(Cc3ccc(OC)cc3)Cc3cccc(N(C)C)c3)CC2=O)cc1
Average Ratio Compound to THI0019 (Activity against CS1) (α4β1/VCAM-1): Group II (Group II at least a ratio of >1 up to 2× that of THI0019 ran on the same plate)

COc1cccc(CN(Cc2cccc(OC)c2)C(=O)CN2CC(=O)N(CC(=O)N(Cc3cccc(OC)c3)Cc3cccc(OC)c3)CC2=O)c1 [2,2′-(2,5-dioxopiperazine-1,4-diyl)bis(N,N-bis(3-methoxybenzyl)acetamide)]
Average Ratio Compound to THI0019 (Activity against CS1) (α4β1/VCAM-1): Group I (Group I< or =1)

CN(C)c1ccc(CN(Cc2ccc(N(C)C)cc2)C(=O)CN2CC(=O)N(CC(=O)N(Cc3ccc(N(C)C)cc3)Cc3ccc(N(C)C)cc3)CC2=O)cc1 [2,2′-(2,5-dioxopiperazine-1,4-diyl)bis(N,N-bis(4-(dimethylamino)benzyl)acetamide)]
Average Ratio Compound to THI0019 (Activity against CS1) (α4β1/VCAM-1): Group I (Group I< or =1)

O=C1CN(CC(=O)N(Cc2cccs2)Cc2cccs2)C(=O)CN1CC(=O)N(Cc1cccs1)Cc1cccs1 [2,2′-(2,5-dioxopiperazine-1,4-diyl)bis(N,N-bis(thiophen-2-ylmethyl)acetamide)]
Average Ratio Compound to THI0019 (Activity against CS1) (α4β1/VCAM-1): Group III (Group III is >2× of THI0019 but less than 5×)

COc1ccc(CN(CC(C)C)C(=O)CN2CC(=O)N(CC(=O)N(Cc3ccc(OC)cc3)CC(C)C)CC2=O)cc1 [2,2′-(2,5-dioxopiperazine-1,4-diyl)bis(N-isobutyl-N-(4-methoxybenzyl)acetamide)]
LAD Raw Fluorescence Units against LFA-1; Ratio of raw counts Compound/THI0349 (LFA-1): 0.15 fold response | Average Ratio Compound to THI0019 (Activity against CS1) (α4β1/VCAM-1): Group III (Group III is >2× of THI0019 but less than 5×)

COc1ccc(CN(Cc2ccc(OC)cc2)C(=O)CN2CCN(CC(=O)N(Cc3ccc(OC)cc3)Cc3ccc(OC)cc3)C(=O)C2)cc1 [2,2′-(2-oxopiperazine-1,4-diyl)bis(N,N-bis(4-methoxybenzyl)acetamide)]
LAD Raw Fluorescence Units against LFA-1; Ratio of raw counts Compound/THI0349 (LFA-1): 5.9 fold increased response | Average Ratio Compound to THI0019 (Activity against CS1) (α4β1/VCAM-1): Group I (Group I< or =1)

COc1ccc(CN(CC(C)C)C(=O)CN2CCN(CC(=O)N(Cc3ccc(OC)cc3)CC(C)C)C(=O)C2)cc1 [2,2′-(2-oxopiperazine-1,4-diyl)bis(N-isobutyl-N-(4-methoxybenzyl)acetamide)]
LAD Raw Fluorescence Units against LFA-1; Ratio of raw counts Compound/THI0349 (LFA-1): 0.19 fold response | Average Ratio Compound to THI0019 (Activity against CS1) (α4β1/VCAM-1): Group III (Group III is >2× of THI0019 but less than 5×)

COc1ccc(CN(Cc2ccc(OC)cc2)C(=O)CN2CCN(CC(=O)N(Cc3ccc(OC)cc3)Cc3ccc(OC)cc3)CC2)cc1 [2,2′-(piperazine-1,4-diyl)bis(N,N-bis(4-methoxybenzyl)acetamide)]
Average Ratio Compound to THI0019 (Activity against CS1) (α4β1/VCAM-1): Group I (Group I< or =1)

O=C(CN1CCN(CC(=O)N(Cc2cccs2)Cc2cccs2)CC1)N(Cc1cccs1)Cc1cccs1 [2,2′-(piperazine-1,4-diyl)bis(N,N-bis(thiophen-2-ylmethyl)acetamide)]
LAD Raw Fluorescence Units against LFA-1; Ratio of raw counts Compound/THI0349 (LFA-1): 0.4 fold response | Average Ratio Compound to THI0019 (Activity against CS1) (α4β1/VCAM-1): Group II (Group II at least a ratio of >1 up to 2× that of THI0019 ran on the same plate)

COc1ccc(CN(CC(C)C)C(=O)CN2CCN(CC(=O)N(Cc3ccc(OC)cc3)CC(C)C)CC2)cc1 [2,2′-(piperazine-1,4-diyl)bis(N-isobutyl-N-(4-methoxybenzyl)acetamide)]
LAD Raw Fluorescence Units against LFA-1; Ratio of raw counts Compound/THI0349 (LFA-1): 0.9 fold response | Average Ratio Compound to THI0019 (Activity against CS1) (α4β1/VCAM-1): Group IV (Group IV>5× of THI0019 (with an upper limit of approximately 200 mM))

COc1ccc(CN(Cc2ccc(OC)cc2)C(=O)CN2CCN(C(=O)c3cccc(OC)c3)CC2=O)cc1 [2-(4-(3-methoxybenzoyl)-2-oxopiperazin-1-yl)-N,N-bis(4-methoxybenzyl)acetamide]
LAD Raw Fluorescence Units against LFA-1; Ratio of raw counts Compound/THI0349 (LFA-1): 0.6 fold response | Average Ratio Compound to THI0019 (Activity against CS1) (α4β1/VCAM-1): Group IV (Group IV>5× of THI0019 (with an upper limit of approximately 200 mM))

COc1ccc(CN(Cc2ccc(N(C)C)cc2)C(=O)CN2CCN(C(=O)OCc3cccc(OC)c3)CC2=O)cc1 [3-methoxybenzyl 4-(2-((4-(dimethylamino)benzyl)(4-methoxybenzyl)amino)-2-oxoethyl)-3-oxopiperazine-1-carboxylate]
LAD Raw Fluorescence Units against LFA-1; Ratio of raw counts Compound/THI0349 (LFA-1): 4.2 fold increased response | Average Ratio Compound to THI0019 (Activity against CS1) (α4β1/VCAM-1): Group II (Group II at least a ratio of >1 up to 2× that of THI0019 ran on the same plate)

COc1ccc(CN(Cc2ccc(OC)cc2)C(=O)CN2CCN(C(=O)OCc3cccc(OC)c3)CC2)cc1 [3-methoxybenzyl 4-(2-(bis(4-methoxybenzyl)amino)-2-oxoethyl)piperazine-1-carboxylate]
LAD Raw Fluorescence Units against LFA-1; Ratio of raw counts Compound/THI0349 (LFA-1): 2.2 fold increased response | Average Ratio Compound to THI0019 (Activity against CS1) (α4β1/VCAM-1): Group II (Group II at least a ratio of >1 up to 2× that of THI0019 ran on the same plate)

COc1ccc(CCOC(=O)N2CCN(CC(=O)N(Cc3ccc(OC)cc3)Cc3ccc(OC)cc3)CC2)cc1 [4-methoxyphenethyl 4-(2-(bis(4-methoxybenzyl)amino)-2-oxoethyl)piperazine-1-carboxylate]
LAD Raw Fluorescence Units against LFA-1; Ratio of raw counts Compound/THI0349 (LFA-1): 4.6 fold increased response | Average Ratio Compound to THI0019 (Activity against CS1) (α4β1/VCAM-1): Group II (Group II at least a ratio of >1 up to 2× that of THI0019 ran on the same plate)

COc1cccc(CN(Cc2ccc(N(C)C)cc2)C(=O)OCCN2CC(=O)N(CCOC(=O)N(Cc3ccc(N(C)C)cc3)Cc3cccc(OC)c3)CC2=O)c1 [(2,5-dioxopiperazine-1,4-diyl)bis(ethane-2,1-diyl) bis(4-(dimethylamino)benzyl (3-methoxybenzyl)carbamate)]
LAD Raw Fluorescence Units against LFA-1; Ratio of raw counts Compound/THI0349 (LFA-1): 7.8 fold increased response | Average Ratio Compound to THI0019 (Activity against CS1) (α4β1/VCAM-1): Group I (Group I< or =1)

COc1ccc(CN(Cc2ccc(N(C)C)cc2)C(=O)OCCN2CC(=O)N(CCOC(=O)N(Cc3ccc(OC)cc3)Cc3ccc(N(C)C)cc3)CC2=O)cc1 [(2,5-dioxopiperazine-1,4-diyl)bis(ethane-2,1-diyl) bis(4-(dimethylamino)benzyl (4-methoxybenzyl)carbamate)]
LAD Raw Fluorescence Units against LFA-1; Ratio of raw counts Compound/THI0349 (LFA-1): 9.9 fold increased response | Average Ratio Compound to THI0019 (Activity against CS1) (α4β1/VCAM-1): Group I (Group I< or =1)

COc1cccc(CN(Cc2cccc(OC)c2)C(=O)OCCN2CC(=O)N(CCOC(=O)N(Cc3cccc(OC)c3)Cc3cccc(OC)c3)CC2=O)c1 [(2,5-dioxopiperazine-1,4-diyl)bis(ethane-2,1-diyl) bis(bis(3-methoxybenzyl)carbamate)]
LAD Raw Fluorescence Units against LFA-1; Ratio of raw counts Compound/THI0349 (LFA-1): 3.4 fold increased response | Average Ratio Compound to THI0019 (Activity against CS1) (α4β1/VCAM-1): Group I (Group I< or =1)

COc1ccc(CN(Cc2ccc(OC)cc2)C(=O)OCCN2CC(=O)N(CCOC(=O)N(Cc3ccc(OC)cc3)Cc3ccc(OC)cc3)CC2=O)cc1 [(2,5-dioxopiperazine-1,4-diyl)bis(ethane-2,1-diyl) bis(bis(4-methoxybenzyl)carbamate)]
LAD Raw Fluorescence Units against LFA-1; Ratio of raw counts Compound/THI0349 (LFA-1): 7.8 fold increased response | Average Ratio Compound to THI0019 (Activity against CS1) (α4β1/VCAM-1): Group I (Group I< or =1)

O=C1CN(CCOC(=O)N(Cc2cccs2)Cc2cccs2)C(=O)CN1CCOC(=O)N(Cc1cccs1)Cc1cccs1 [(2,5-dioxopiperazine-1,4-diyl)bis(ethane-2,1-diyl) bis(bis(thiophen-2-ylmethyl)carbamate)]
LAD Raw Fluorescence Units against LFA-1; Ratio of raw counts Compound/THI0349 (LFA-1): 2 fold increased response | Average Ratio Compound to THI0019 (Activity against CS1) (α4β1/VCAM-1): Group II (Group II at least a ratio of >1 up to 2× that of THI0019 ran on the same plate)
